Results: patent US20110245249A1, “Heterocyclically Substituted Anilinopyrimidines” (Bayer CropScience AG, priority 2008, published 2011)

Assay: logP by HPLC on reversed-phase columns (EEC Directive 79/831 Annex V.A8)
Type: physicochemical
Conditions: for log p [a]: pH 2.3
Protocol: The logP values were measured in accordance with EEC Directive 79/831 Annex V.A8 by HPLC (High Performance Liquid Chromatography) on reversed-phase columns (C 18) using the methods below:
[a] The determination was carried out in the acidic range at pH 2.3 using the mobile phases 0.1% aqueous phosphoric acid and acetronitrile linear gradient from 10% acetonitrile to 95% acetronitrile. [b] The LC-MS determination in the acid range was carried out at pH 2.7 using the mobile phases 0.1% aqueous formic acid and acetonitrile (contains 0.1% formic acid) linear gradient from 10% acetonitrile to 95% acetonitrile. [c] The LC-MS determination in the neutral range was carried out at pH 7.8 using the mobile phases 0.001 molar aqueous ammonium bicarbonate solution and acetonitrile linear gradient from 10% acetonitrile to 95% acetonitrile.

| SMILES | log p [b] (pH 2.7) | log p [c] (pH 7.8) | log p [a] | log p (pH 2.7) | log p (pH 7.8) |
| --- | --- | --- | --- | --- | --- |
| CC(C)(C)OCC1COC(c2cccc(Nc3ncc(Cl)c(NC4CC4)n3)c2)O1 (stereo not shown) [Example 95] | 2.76 | 4.08 |  |  |  |
| CCCOCC1COC(c2cccc(Nc3ncc(Cl)c(NC4CC4)n3)c2)O1 (stereo not shown) [Example 96] | 2.51 | 3.79 |  |  |  |
| CC1CCOC(c2cccc(Nc3ncc(Cl)c(NC4CC4)n3)c2)O1 (stereo not shown) [Example 97] | 2 | 3.25 |  |  |  |
| CC1OC(c2cccc(Nc3ncc(Cl)c(NC4CC4)n3)c2)OC(C)C1C (stereo not shown) [Example 98] | 2.77 | 4.21 |  |  |  |
| Clc1cnc(Nc2cccc(C3OCC(Cl)CO3)c2)nc1NC1CC1 (stereo not shown) [Example 99] | 2.15 | 3.33 |  |  |  |
| CC1(C)CCOC(c2cccc(Nc3ncc(Cl)c(NC4CC4)n3)c2)O1 (stereo not shown) [Example 100] | 2.22 | 3.57 |  |  |  |
| CC1COC(c2cccc(Nc3ncc(Cl)c(NC4CC4)n3)c2)OC1 (stereo not shown) [Example 101] | 2.1 | 3.35 |  |  |  |
| CC1(C)CC(C)(C)OC(c2cccc(Nc3ncc(Cl)c(NC4CC4)n3)c2)O1 [Example 102] | 2.86 | 4.32 |  |  |  |
| Clc1cnc(Nc2cccc(C3OCC4(CCC4)CO3)c2)nc1NC1CC1 [Example 103] | 2.6 | 3.62 |  |  |  |
| COCC1COC(c2cccc(Nc3ncc(Br)c(NC4CC4)n3)c2)O1 (stereo not shown) [Example 104] | 1.9 | 3.02 |  |  |  |
| COCC1COC(c2cccc(Nc3ncc(C(F)(F)F)c(NC4CCC4)n3)c2)O1 (stereo not shown) [Example 106] | 3.22 | 3.77 |  |  |  |
| C=CCOCC1COC(c2cccc(Nc3ncc(Br)c(NC4CC4)n3)c2)O1 (stereo not shown) [Example 107] | 2.43 |  | 2.01 |  |  |
| C=CCOCC1COC(c2cccc(Nc3ncc(C(F)(F)F)c(NC4CC4)n3)c2)O1 (stereo not shown) [Example 108] | 3.35 | 3.79 |  |  |  |
| C=CCOCC1COC(c2cccc(Nc3ncc(C(F)(F)F)c(NC4CCC4)n3)c2)O1 (stereo not shown) [Example 109] | 3.84 | 4.35 |  |  |  |
| Brc1cnc(Nc2cccc(C3OC4COCC4O3)c2)nc1NC1CC1 (stereo not shown) [Example 110] |  | 2.66[c] |  |  |  |
| FC(F)(F)c1cnc(Nc2cccc(C3OC4COCC4O3)c2)nc1NC1CC1 (stereo not shown) [Example 111] |  | 2.87 | 1.94 |  |  |
| FC(F)(F)c1cnc(Nc2cccc(C3OC4COCC4O3)c2)nc1NC1CCC1 (stereo not shown) [Example 112] | 2.79 | 3.37 |  |  |  |
| CCC1COC(c2cccc(Nc3ncc(C(F)(F)F)c(NC4CCC4)n3)c2)O1 (stereo not shown) [Example 113] | 4.06 | 4.56 |  |  |  |
| COCC1COC(c2cccc(Nc3ncc(Cl)c(NC4CCC4)n3)c2)O1 (stereo not shown) [Example 114] | 2.09 | 3.42 |  |  |  |
| COCC1COC(c2cccc(Nc3ncc(Br)c(NC4CCC4)n3)c2)O1 (stereo not shown) [Example 115] | 2.19 | 3.61 |  |  |  |
| C=CCOCC1COC(c2cccc(Nc3ncc(Cl)c(NC4CCC4)n3)c2)O1 (stereo not shown) [Example 116] | 2.59 | 4.07 |  |  |  |
| C=CCOCC1COC(c2cccc(Nc3ncc(Br)c(NC4CCC4)n3)c2)O1 (stereo not shown) [Example 117] | 2.77 | 4.24 |  |  |  |
| Clc1cnc(Nc2cccc(C3OC4COCC4O3)c2)nc1NC1CCC1 (stereo not shown) [Example 118] | 1.77 | 3.04 |  |  |  |

| SMILES | log p [b] (pH 2.7) | log p [c] (pH 7.8) | log p [a] | log p (pH 2.7) | log p (pH 7.8) |
| --- | --- | --- | --- | --- | --- |
| Brc1cnc(Nc2cccc(C3OC4COCC4O3)c2)nc1NC1CCC1 (stereo not shown) [Example 119] | 1.91 | 3.23 |  |  |  |
| CC(C)(C)C1CCOC(c2cccc(Nc3ncc(Br)c(NC4CC4)n3)c2)O1 (stereo not shown) [Example 120] | 3.34 | 4.7 |  |  |  |
| CC(C)(C)C1CCOC(c2cccc(Nc3ncc(Cl)c(NC4CC4)n3)c2)O1 (stereo not shown) [Example 121] | 3.16[b] |  |  |  |  |
| CC(C)(C)C1CCOC(c2cccc(Nc3ncc(C(F)(F)F)c(NC4CC4)n3)c2)O1 (stereo not shown) [Example 122] | 4.44 | 4.82 |  |  |  |
| Clc1cnc(Nc2cccc(C3OCC4(CC4)CO3)c2)nc1NC1CC1 [Example 123] | 2.09 | 3.32 |  |  |  |
| CC1CC(C(F)(F)F)OC(c2cccc(Nc3ncc(Cl)c(NC4CC4)n3)c2)O1 (stereo not shown) [Example 124] | 2.84[b] |  |  |  |  |
| CCOC1COC(c2cccc(Nc3ncc(Cl)c(NC4CC4)n3)c2)OC1 (stereo not shown) [Example 125] | 2.07 | 3.27 |  |  |  |
| Clc1cnc(Nc2cccc(C3OCCCCO3)c2)nc1NC1CC1 [Example 126] | 2.14 | 3.48 |  |  |  |
| Clc1cnc(Nc2cccc(C3OCCCS3)c2)nc1NC1CC1 (stereo not shown) [Example 127] | 2.1 | 3.33 |  |  |  |
| Fc1ccc(Nc2ncc(Cl)c(NC3CC3)n2)cc1C1OCCO1 [Example 128] | 1.75 | 2.88 |  |  |  |
| CC1CC1Nc1nc(Nc2cccc(C3OCCO3)c2)ncc1C(F)(F)F (stereo not shown) [Example 129] | 3.03 | 3.58 |  |  |  |
| COCC1COC(c2cccc(Nc3ncc(C(F)(F)F)c(NC4CC4C)n3)c2)O1 (stereo not shown) [Example 130] |  |  |  | 3.18 | 3.7 |
| CC1CC1Nc1nc(Nc2cccc(C3OCCO3)c2)ncc1Br (stereo not shown) [Example 131] |  |  |  |  | 3.33[c] |
| COCC1COC(c2cccc(Nc3ncc(Br)c(NC4CC4C)n3)c2)O1 (stereo not shown) [Example 132] |  |  |  | 2.19 | 3.52 |
| CC1CC1Nc1nc(Nc2cccc(C3OCCCO3)c2)ncc1Br (stereo not shown) [Example 133] |  |  |  | 2.18 | 3.53 |
| C#CCNc1nc(Nc2cccc(C3OCCO3)c2)ncc1Cl [Example 134] |  |  |  | 1.58 | 2.37 |
| Clc1cnc(Nc2ccc(C3OCCCO3)cc2)nc1NC1CC1 [Example 135] |  |  |  | 1.72 | 2.82 |
| COc1ccc(Nc2ncc(C(F)(F)F)c(NC3CC3)n2)cc1C1OCCCO1 [Example 136] |  |  |  | 2.38 | 3.18 |
| COc1ccc(Nc2ncc(Br)c(NC3CC3)n2)cc1C1OCCO1 [Example 138] |  |  |  | 1.5 | 2.7 |
| COc1ccc(Nc2ncc(Br)c(NC3CCC3)n2)cc1C1OCCO1 [Example 139] |  |  |  | 1.79 | 3.29 |
| Fc1ccc(Nc2ncc(Br)c(NC3CC3)n2)cc1C1OCCO1 [Example 141] |  |  |  | 1.89 | 2.98 |
| Fc1ccc(Nc2ncc(Br)c(NC3CCC3)n2)cc1C1OCCO1 [Example 142] |  |  |  | 2.22 | 3.55 |
| Fc1ccc(Nc2ncc(C(F)(F)F)c(NC3CC3)n2)cc1C1OCCO1 [Example 143] |  |  |  | 2.76 | 3.2 |

| SMILES | log p [b] (pH 2.7) | log p [c] (pH 7.8) | log p [a] | log p (pH 2.7) | log p (pH 7.8) |
| --- | --- | --- | --- | --- | --- |
| Fc1ccc(Nc2ncc(Cl)c(NC3CC3)n2)cc1C1OCCCO1 [Example 144] |  |  |  | 1.87 | 3.02 |
| Fc1ccc(Nc2ncc(Br)c(NC3CC3)n2)cc1C1OCCCO1 [Example 145] |  |  |  | 2.01 | 3.16 |
| Fc1ccc(Nc2ncc(Br)c(NC3CCC3)n2)cc1C1OCCCO1 [Example 146] |  |  |  | 2.3 | 3.75 |
| Fc1ccc(Nc2ncc(C(F)(F)F)c(NC3CC3)n2)cc1C1OCCCO1 [Example 147] |  |  |  | 2.27 | 3.40 |
| CC(C)Nc1nc(Nc2cccc(C3OCCO3)c2)ncc1Cl [Example 148] |  |  |  | 1.7 | 3.04 |
| CC(C)Nc1nc(Nc2cccc(C3OCCCO3)c2)ncc1Cl [Example 149] |  |  |  | 1.73 | 3.2 |
| CCC1COC(c2cccc(Nc3ncc(Br)c(NC4CC4)n3)c2)O1 (stereo not shown) [Example 150] |  |  |  |  | 3.68[c] |
| Brc1cnc(Nc2cccc(C3OCCCO3)c2)nc1NC1CCC1 [Example 151] |  |  |  | 2.11 | 3.54 |
| Clc1cnc(Nc2cccc(C3OCCCO3)c2)nc1NCC1CC1 [Example 152] |  |  |  | 1.87[b] |  |
| FC(F)(F)c1cnc(Nc2cccc(C3OCCCO3)c2)nc1NC1CC1 [Example 153] |  |  |  | 2.71[b] |  |
| CCOCCOCC1COC(c2cccc(Nc3ncc(Cl)c(NC4CC4)n3)c2)O1 (stereo not shown) [Example 154] |  |  |  | 2.05 | 3.13 |
| CC1CSC(c2cccc(Nc3ncc(C(F)(F)F)c(NC4CC4)n3)c2)S1 (stereo not shown) [Example 155] |  |  |  | 4.14 | 4.44 |
| Clc1cnc(Nc2cccc(C3OCC(CBr)O3)c2)nc1NC1CC1 (stereo not shown) [Example 156] |  |  |  | 2.39 | 3.48 |
| CC1CCC2OC(c3cccc(Nc4ncc(Cl)c(NC5CC5)n4)c3)OC12 (stereo not shown) [Example 157] |  |  |  | 2.79 | 4.1 |
| CC1(C)OC(c2cccc(Nc3ncc(Cl)c(NC4CC4)n3)c2)OC1(C)C [Example 158] |  |  |  | 2.78 | 4.13 |
| CCC1(CO)COC(c2cccc(Nc3ncc(Cl)c(NC4CC4)n3)c2)OC1 (stereo not shown) [Example 159] |  |  |  | 1.82 | 2.77 |
| OCC1CSC(c2cccc(Nc3ncc(Cl)c(NC4CC4)n3)c2)S1 (stereo not shown) [Example 160] |  |  |  |  | 2.72[c] |
| CC1CSC(c2cccc(Nc3ncc(Cl)c(NC4CC4)n3)c2)S1 (stereo not shown) [Example 161] |  |  |  | 2.79 | 4.14 |
| OCC1CSC(c2cccc(Nc3ncc(Cl)c(NC4CCC4)n3)c2)S1 (stereo not shown) [Example 162] |  |  |  | 1.93 | 3.14 |
| CC1CSC(c2cccc(Nc3ncc(Cl)c(NC4CCC4)n3)c2)S1 (stereo not shown) [Example 163] |  |  |  | 3.23 | 4.72 |
| OCC1CSC(c2cccc(Nc3ncc(Br)c(NC4CCC4)n3)c2)S1 (stereo not shown) [Example 164] |  |  |  | 2.11 | 3.28 |
| CC1CSC(c2cccc(Nc3ncc(Br)c(NC4CCC4)n3)c2)S1 (stereo not shown) [Example 165] |  |  |  | 3.49 | 4.92 |
| OCC1CSC(c2cccc(Nc3ncc(Br)c(NC4CC4)n3)c2)S1 (stereo not shown) [Example 166] |  |  |  | 1.89 | 2.85 |
